In publication PMC8232621, “Antimicrobial Activity of a Library of Thioxanthones and Their Potential as Efflux Pump Inhibitors” (Pharmaceuticals, 2021) one finds zone of inhibition, inhibition and MIC data, which are given here for 13 compounds.

The structures appear in SMILES notation. Where two headings read alike, the source gives them in different places.

The subject of one experiment is EZF + CV026. Put plainly: Quorum sensing inhibition assay (pigment production), parallel inoculation. In kind it is cell-based. As to conditions: disk with 8 µL of 10 mM solution, read-out: Quorum Sensing Inhibition (mm) ± SD. Here is the method:
Concerning the QS inhibition assay, the sensor strain Chromobacterium violaceum CV026 and the AHL producer strain Sphingomonas paucimobilis Ezf 10-17 (EZF) were inoculated as parallel lines, and the AHL producers Chromobacterium violaceum wild-type 85 (wt85) and Serratia marcescens AS-1 were inoculated as a single line. The interaction between the strains and compounds 2–18 was evaluated as the reduction of pigment production, in millimeters (mm) (Table 5) with promethazine (PMZ) as a positive control.
The QS inhibitory effect of the compounds was examined on the EZF and the sensor CV026 strains, on the wt85 strain, and on S. marcescens. The method used was the parallel inoculation method, where pair combinations of the used sensor strain CV026 and the N-acyl-homoserine lactone (AHL) producing strain EZF were inoculated directly onto the LB*-A agar surface in parallel, at an approximate distance of 5 mm from each other. S. marcescens AS-1 and wt85 were inoculated as a single line. Filter paper disks (7 mm in diameter) were placed on the center of the inoculated line(s) and impregnated with 8 µL of a solution of 10 mM of the compounds. […] The agar plates were incubated at room temperature (20 °C) for 24−48 h. The QS inhibition was accessed visually, through the inhibition of pigment production. The discolored, but intact, bacterial colonies were measured with a ruler.

Another experiment has as its system S. aureus 272123. The experiment is described as follows: Inhibition of biofilm formation (crystal violet). In kind it is cell-based, Staphylococcus aureus. As to conditions: read-out: Biofilm Inhibition (%) ± SD. How it is done: Efflux mechanisms are one of the factors that can lead to biofilm-mediated resistance, along with slow growth and reduced penetration due to production of extracellular polysaccharides. […] Additionally, they can also modulate QS, through an influence in the transport of QS signal molecules. Thioxanthones 2–18 were tested for their potential for inhibiting biofilm formation by S. aureus ATCC 29213 and the multi-resistant S. aureus 272123. The biofilm inhibition, presented in percentage (%), was calculated based on the mean of absorbance units. Reserpine, which has previously been described as both an efflux pump inhibitor and an inhibitor of biofilm formation in Gram-positive bacteria was used as control in both strains.
The thioxanthone derivatives were tested for their ability to decrease the formation of biofilm. The bacterial strains used were the Gram-positive S. aureus […] and S. aureus 272123. The detection of the biofilm formation was carried out using the dye crystal violet (CV; 0.1% v/v). The initial inoculum was incubated in TSB overnight, and then diluted to an OD600 of 0.1. […] This meant that compound 12 was added at 50 µM, while the rest of the compounds were added at the concentration of 100 µM. The final volume in each well was 200 µL. Reserpine was used as a positive control, as it was the same compound used in the efflux pump inhibition assay and it has shown activity in the inhibition of biofilm formation in S. aureus strains. The plates were incubated at 30 °C for 48 h, with gentle stirring (100 rpm). After this incubation period, the TSB medium was discarded, and the plates were washed with tap water to remove unattached cells. Afterwards, 200 µL of a 0.1% v/v CV solution were added to the wells and incubated for 15 min at room temperature. Then, the CV solution was removed from the wells, and the plates were washed again with tap water, and 200 µL of a 70% ethanol solution was added to the wells. The biofilm formation was determined by measuring the OD600 using a Multiscan EX ELISA plate reader (Thermo Labsystems, Cheshire, WA, USA). The anti-biofilm effect of the compounds was expressed in the percentage (%) of decrease of biofilm formation.

In a further experiment the test system is E. coli ATCC 25922. The experiment is described as follows: Antibacterial activity, broth microdilution MIC. It counts as cell-based. Conditions: Escherichia coli, ATCC25922, read-out: Minimum Inhibitory Concentration (MIC). (In general: In broth dilution the organism is exposed to a series of concentrations in liquid medium.)
Another experiment deals with P. aeruginosa ATCC 27853. Put plainly: Antibacterial activity, broth microdilution MIC. It counts as cell-based. Conditions: Pseudomonas aeruginosa, ATCC27853, read-out: Minimum Inhibitory Concentration (MIC).
The mark [1] stands for this setting: Staphylococcus aureus, S. aureus 272123, compounds 100 µM (compound 12 at 50 µM), 48 h.

For orientation: inhibition means the change of the read-out against control, counted positive when it falls.

For `CCCOc1ccc(NCCN(CC)CC)c2c(=O)c3ccccc3sc12` [Compound 2], the zone of inhibition at 10000 µM with EZF + CV026 stood at 0 mm. Moreover, the inhibition at 100 µM in the experiment on S. aureus 272123 (setting [1]) came out at 81.1 ± 1.18%.

On to `CCCOc1ccc(N2CCCCC2)c2c(=O)c3ccccc3sc12` [Compound 3], for which the zone of inhibition at 10000 µM in the experiment with EZF + CV026 is 31 ± 0.8 mm. Moreover, in the experiment with S. aureus 272123 (Staphylococcus aureus, 272123, 48 h), the inhibition at 100 µM was 93.49 ± 0.33%.

Take `CCCOc1ccc(Nc2nc(C)cc(C)n2)c2c(=O)c3ccccc3sc12` [Compound 8, 1-[(4,6-Dimethylpyrimidin-2-yl)amino]-4-propoxy-9H-thioxanthen-9-one]: the zone of inhibition at 10000 µM in the experiment on EZF + CV026 came to 32 ± 0.1 mm. The inhibition at 100 µM with S. aureus 272123 (setting [1]) came out at 0%. Besides, the MIC with E. coli ATCC 25922 and in the experiment on P. aeruginosa ATCC 27853 was more than 100 µM throughout.

On to `CCCOc1ccc(N2CCNC(=O)C2)c2c(=O)c3ccccc3sc12` [Compound 9, 4-(9-Oxo-4-propoxy-9H-thioxanthen-1-yl)piperazin-2-one], for which the zone of inhibition at 10000 µM in the experiment on EZF + CV026 came out at 0 mm. Further, the inhibition at 100 µM in the experiment with S. aureus 272123 (setting [1]) amounted to 31.5 ± 8.99%. Further, the MIC in the experiment on E. coli ATCC 25922 and in the experiment with P. aeruginosa ATCC 27853 was more than 100 µM throughout.

Turning to `CCCOc1ccc(NCCO)c2c(=O)c3ccccc3sc12` [Compound 10, 1-[(2-Hydroxyethyl)amino]-4-propoxy-9H-thioxanthen-9-one], the zone of inhibition at 10000 µM in the experiment with EZF + CV026 amounted to 0 mm. The inhibition at 100 µM with S. aureus 272123 (setting [1]) was determined as 55.2 ± 4.2%. Further, the MIC in the experiment on E. coli ATCC 25922 and with P. aeruginosa ATCC 27853 was more than 100 µM each time.

Take `CCCOc1ccc(NCCN2CCOCC2)c2c(=O)c3ccccc3sc12` [Compound 11, 1-[(2-Morpholinoethyl)amino]-4-propoxy-9H-thioxanthen-9-one]: the zone of inhibition at 10000 µM in the experiment with EZF + CV026 worked out at 0 mm. Besides, the inhibition at 100 µM with S. aureus 272123 (setting [1]) is 20.2 ± 4%. The MIC with E. coli ATCC 25922 and with P. aeruginosa ATCC 27853 was more than 100 µM each time.

Take `CCCOc1ccc(NS(=O)(=O)c2ccc(C(=O)O)cc2)c2c(=O)c3ccccc3sc12` [Compound 12, 4-[N-(9-Oxo-4-propoxy-9H-thioxanthen-1-yl)sulfamoyl]benzoic acid]: the zone of inhibition at 10000 µM in the experiment with EZF + CV026 turned out to be 0 mm. Moreover, the MIC in the experiment with E. coli ATCC 25922 and in the experiment on P. aeruginosa ATCC 27853 was more than 100 µM in each case.

Regarding `CCCOc1ccc(NS(=O)(=O)c2ccc(N)cc2)c2c(=O)c3ccccc3sc12` [Compound 13, 4-Amino-N-(9-oxo-4-propoxy-9H-thioxanthen-1-yl)benzenesulfonamide], the zone of inhibition at 10000 µM in the experiment on EZF + CV026 came to 51 ± 0.1 mm. Further, the inhibition at 100 µM in the experiment on S. aureus 272123 (setting [1]) turned out to be 72 ± 6.66%. Further, the MIC in the experiment on E. coli ATCC 25922 and in the experiment on P. aeruginosa ATCC 27853 was more than 100 µM throughout.

With `CCCOc1ccc(Br)c2c(=O)c3ccccc3sc12` [Compound 14, 1-Bromo-4-propoxy-9H-thioxanthen-9-one], in the experiment on EZF + CV026, the zone of inhibition at 10000 µM is 0 mm. Further, the inhibition at 100 µM with S. aureus 272123 (setting [1]) was determined as 2.46 ± 0.72%. Besides, the MIC in the experiment on E. coli ATCC 25922 and in the experiment with P. aeruginosa ATCC 27853 was more than 100 µM throughout.

Regarding `CCCOc1ccc2ncnc3c2c1Sc1ccccc1-3` [Compound 15], in the experiment with EZF + CV026, the zone of inhibition at 10000 µM was 50 ± 0.1 mm. Further, the inhibition at 100 µM in the experiment on S. aureus 272123 (setting [1]) is 76 ± 2.06%. The MIC with E. coli ATCC 25922 and with P. aeruginosa ATCC 27853 was more than 100 µM throughout.

`CCCOc1ccc2nc(N)nc3c2c1Sc1ccccc1-3` [Compound 16]: the zone of inhibition at 10000 µM in the experiment with EZF + CV026 came to 29 ± 0.8 mm. In the experiment on S. aureus 272123 (setting [1]), the inhibition at 100 µM was determined as 73.6 ± 1.8%. In addition, the MIC with E. coli ATCC 25922 and in the experiment with P. aeruginosa ATCC 27853 was more than 100 µM throughout.

`CCCOc1ccc2nc(NCc3ccccc3Cl)nc3c2c1Sc1ccccc1-3` [Compound 17]: the zone of inhibition at 10000 µM in the experiment with EZF + CV026 came out at 49 ± 0.5 mm. The inhibition at 100 µM in the experiment on S. aureus 272123 (setting [1]) stood at 6.32 ± 4.32%. Besides, the MIC in the experiment with E. coli ATCC 25922 and in the experiment on P. aeruginosa ATCC 27853 was more than 100 µM throughout.

For `CCCOc1ccc2c3c(n/c(=N\c4ccccc4C)n2-c2ccccc2C)-c2ccccc2Sc13` [Compound 18], the zone of inhibition at 10000 µM in the experiment with EZF + CV026 is 0 mm. For the same compound, the inhibition at 100 µM in the experiment with S. aureus 272123 (setting [1]) was determined as 1.62 ± 2.43%. Besides, the MIC in the experiment with E. coli ATCC 25922 and in the experiment with P. aeruginosa ATCC 27853 was more than 100 µM each time.
